Experiment [1] concerns the target T1, Blon_0883 (BiGFL-BP) (Bifidobacterium longum, UniProt A0AAX1LHV4).
T1 construct: gene msmE_4; mature peptide, amino acids 24-460, signal peptide removed; N-terminal TEV-cleavable His tag cut; E. coli BL21(DE3)
T1 sequence (A0AAX1LHV4 24-445): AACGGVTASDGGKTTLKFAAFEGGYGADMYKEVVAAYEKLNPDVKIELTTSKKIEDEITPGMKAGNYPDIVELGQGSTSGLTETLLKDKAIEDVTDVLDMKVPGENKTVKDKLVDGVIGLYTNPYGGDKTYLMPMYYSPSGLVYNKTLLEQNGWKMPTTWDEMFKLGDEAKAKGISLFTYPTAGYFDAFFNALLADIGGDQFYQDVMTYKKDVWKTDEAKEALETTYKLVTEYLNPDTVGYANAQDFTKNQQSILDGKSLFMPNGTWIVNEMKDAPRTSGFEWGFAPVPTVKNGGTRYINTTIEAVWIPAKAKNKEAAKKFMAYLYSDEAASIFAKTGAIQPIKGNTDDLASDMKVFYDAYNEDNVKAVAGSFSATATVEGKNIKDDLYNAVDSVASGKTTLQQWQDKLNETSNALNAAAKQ
Further details: SPR (Biacore T100), immobilized Blon_0883 on CM5 chip, 25 °C, pH 6.5; kinetic and steady-state fits. As to conditions: binder. As for the experimental part:
(§1) Affinity of Blon_0883 to oligosaccharides was also determined using a Biacore T100 (GE Healthcare). The protein was diluted into 10 mM sodium acetate (pH 4.2) to 2.0 µM and immobilized on a CM5 sensor chip using random amine coupling kit (GE Healthcare) to a density of 3,077 response units (RU) and the sensograms were recorded at 25°C in the same buffer used for the ITC (including 150 mM NaCl and 0.005% P20 surfactant) and analyzed as described ([24]). Experiments were performed in independent duplicates in the range 3.42–2,500 nM for LNB, GNB, Lewis A triose and Blood group H antigen triose. Binding was also tested using 0.1 µM–100 mM Lac, Gal, 3FL, 3SL, DFL LNT, and di-N-acetyl-lactosamine. The mature peptide of Blon_0883 was produced and purified to electrophoretic homogeneity. The binding affinity and thermodynamics of the transport protein were analyzed using isothermal titration calorimetry (ITC) and surface plasmon resonance (SPR) (Fig. 1; Fig. S1; Table S1). Among the tested ligands, the highest affinities were measured toward LNB and GNB. The binding of both ligands was driven by favorable enthalpy, similar to other saccharide-specific SBP ([21]) (Table 1). The Lewis a (Le^a) and blood group H type 1 antigen (H1) trisaccharides were both bound with about four-fold lower affinity than the preferred LNB ligand. […] Panels A through D depict representative binding isotherms based on technical triplicates. The circles are blank and reference-corrected binding levels, and the solid lines are the fits of a one binding site model to the steady state data. Panels E and F depict the blank and reference-corrected sensograms in gray, and the green lines are the global fits of a kinetic one site binding model to the binding sensograms.

For experiment [2], the target named is T1, Blon_0883 (BiGFL-BP). The experiment is described as follows: surface plasmon resonance, steady state. It counts as binding. As to conditions: 25 °C, pH 6.5, 10 mM sodium phosphate, 150 mM NaCl, 0.005% P20; protein amine-coupled to CM5 chip. The source says:
surface plasmon resonance, steady state on Blon_0883 (BiGFL-BP)
Background: In SPR one partner is held on a chip, and binding of the other changes the refractive index at the surface.

Experiment [3] deals with T1, Blon_0883 (BiGFL-BP). The experiment is described as follows: biochemical. Details: SPR (Biacore T100), immobilized Blon_0883 on CM5 chip, 25 °C, pH 6.5; kinetic and steady-state fits. As to conditions: SPR kinetic global fit; for kon: read-out: kon (×10^6 M^-1s^-1). As for the experimental part: as §1
Experiment [4] concerns the target T1, Blon_0883 (BiGFL-BP). The experiment in a line: isothermal titration calorimetry. It counts as binding. The following applies: 25 °C, pH 6.5, 10 mM sodium phosphate; one-site model; free protein in solution. The text has this: isothermal titration calorimetry on Blon_0883 (BiGFL-BP)
Where [5] appears, read: SPR kinetic global fit, read-out: Kd Kinetics.

SMILES strings stand for the structures. Like-named read-outs stand apart in the source and are kept apart here.

As a reminder, the Kd is a measure of binding affinity in units of concentration. As a reminder, the koff is a measure of how fast the partners let go of each other. A high value points to a short-lived complex. A word on the kon: it is a measure of how fast the partners come together.

For `CC(=O)N[C@H]1C(O)O[C@H](CO)[C@@H](O[C@@H]2O[C@@H](C)[C@@H](O)[C@@H](O)[C@@H]2O)[C@@H]1O[C@@H]1O[C@H](CO)[C@H](O)[C@H](O)[C@H]1O` (stereo partly drawn) [Le^a], at Blon_0883 (BiGFL-BP) [1] (setting [5]), the Kd came out at 0.049 µM. At Blon_0883 (BiGFL-BP) [2], this compound returned a dissociation constant (Kd) of 146 ± 12 nM. Further, at Blon_0883 (BiGFL-BP) [3], the koff is 0.14 ± 0.0005 s⁻¹ and the kon came out at 3e+06 ± 10000 M⁻¹ s⁻¹.
Consider `CC(=O)N[C@H]1C(O)O[C@H](CO)[C@H](O)[C@@H]1O[C@@H]1O[C@H](CO)[C@H](O)[C@H](O)[C@H]1O` (stereo partly drawn) [GNB, Galβ1,3GalNAc], for which the values for the Kd at Blon_0883 (BiGFL-BP) [1] (setting [5]), at Blon_0883 (BiGFL-BP) [1] (SPR steady-state fit) and at Blon_0883 (BiGFL-BP) [4] were 0.042 µM, 0.062 ± 0.004 µM and 169 nM, respectively. This compound returned an off-rate constant (koff) on Blon_0883 (BiGFL-BP) [3] of 0.04 ± 0.003 s⁻¹. For the same compound, the kon at Blon_0883 (BiGFL-BP) [3] is 850000 ± 4000 M⁻¹ s⁻¹.
For `CC(=O)N[C@H]1C(O)O[C@H](CO)[C@@H](O)[C@@H]1O[C@@H]1O[C@H](CO)[C@H](O)[C@H](O)[C@H]1O` (stereo partly drawn) [LNB, Galβ1,3GlcNAc] the same measures were 0.011 µM, 0.0325 ± 0.0032 µM, 68.5 nM, 0.16 ± 0.003 s⁻¹ and 1.46e+07 ± 30000 M⁻¹ s⁻¹.
For `CC(=O)N[C@H]1C(O)O[C@H](CO)[C@@H](O)[C@@H]1O[C@@H]1O[C@H](CO)[C@H](O)[C@H](O)[C@H]1O[C@@H]1O[C@@H](C)[C@@H](O)[C@@H](O)[C@@H]1O` (stereo partly drawn) [H1], the dissociation constant (Kd) on Blon_0883 (BiGFL-BP) [1] (setting [5]) was 0.037 µM. At Blon_0883 (BiGFL-BP) [2], this compound gave a dissociation constant (Kd) of 158 ± 9 nM. For the same compound, at Blon_0883 (BiGFL-BP) [3], the dissociation rate constant (koff) was 0.17 ± 0.002 s⁻¹ and the on-rate constant (kon) came to 4.8e+06 ± 60000 M⁻¹ s⁻¹.

The record behind these values is article PMC12345172, “Uptake of fucosylated type I human milk oligosaccharide blocks by Bifidobacterium longum subsp. infantis” (mBio, 2025).
